Assay results as given in patent EP2955191A1, “Compound, composition and method for treating and/or ameoliorating kidney disease” (Trineo Biotechnology Co. Ltd, priority 2014, dated 2015).

Key:
MDCK cells = assay: Cisplatin induced in vitro kidney cell apoptosis (mitochondria membrane potential, DiOC6 staining); format: cell-based, canine; conditions: given after 50 µM cisplatin for 4 hrs, FIG 1A
Protocol: Madin-Darby canine kidney (MDCK) cells (1.5 x 10^5 cells/mL) were cultured and maintained in Dulbecco's modified Eagle medium (DMEM) supplemented with 10% fetal bovine serum (FBS), 100 units/mL penicillin, […] streptomycin, 2mM L-glutamine, non-essential amino acids and sodium pyruvate, and maintained in 5% CO2 at 37 °C until reached 80% confluence, then were subject to cell passages.
MDCK cells were cultured in according to procedures described in the "Materials and Methods" section. To start the experiment, MDCK cells were first incubated with 50 µM cisplatin for 4 hrs, then various concentrations of the compound of formula (I) (50µg/mL or 100 µg/mL) or the YKII-10 composition of example 1.2 (25 to 100 µg/mL) were given to cisplatin-treated cells and further incubated for another 24 hrs. Mitochondria membrane potentials were then measured by staining the live cells with fluorescent dyes (e.g., 50 nM DiOC6), in which 50 nM DiOC6 were added to cells and incubated at 37 °C for 30 min. The cells were then washed twice with phosphate buffer solution before subjecting to microscopy analysis using the inverted fluorescent microscope. […] Results are illustrated in FIGs 1A and 1B.

Blb/c mice = assay: Lipopolysaccharide (LPS) induced in vivo kidney inflammation (urine protein); conditions: oral 100 mg/Kg; LPS 2.5 mg/Kg/day i.p. for 5 days; urine on fifth and tenth day; FIG 3
Protocol: Blb/c mice were kept in pathogen-free environment under 12:12 light-dark cycle with food (laboratory rodent diet 5001 purchased from PMI Nutrition International Inc. MO, USA) and water (i.e., distilled water) provided ad libitum, ambient temperature and relative humidity were respectively set at 22±3 °C and 50±20%. All procedures involving animal studies of the present disclosure comply with the "Guideline for the Care and Use of Laboratory Animals" issued by The Chinese-Taipei Society of Laboratory Animal Sciences.
In this example, to evaluate the therapeutic or prophylactic function of the compositon of example 1.2, animals were first injected intraperitoneally with lipopolysaccharide (LPS) to induce in vivo kidney inflammation before being subect to the treatment of the compositon of example 1.2.
Blb/c mice (6 weeks old) were randomly assigned to two groups, and injected intraperitoneally with lipopolysaccharide (LPS, 2.5 mg/Kg/day) for 5 consecutive days so as to induce kidney inflammation. […] Unine sampls were respectively collected on the fifth and the tenth day after the experiment started, and analyzed for the level of urine protein therein. […]

## C[C@H](CCC(=O)O)[C@H]1C[C@H](O)[C@@]2(C)C3=C(C(=O)C[C@]12C)[C@@]1(C)CCC(=O)C(C)(C)[C@@H]1C[C@@H]3O [compound of formula (I)]
MDCK cells; 50µg/mL or 100 µg/mL for 24 hrs
  reversing cisplatin-induced apoptosis of MDCK cell: capable of reversing
MDCK cells; 100 µg/mL for 24 hrs, MDCK cells
  recovery on the membrane potential: about 80%
Blb/c mice
  urine protein level: effective in reducing
